Source: patent publication US7713957B2, “Pharmaceutical composition containing gabapentin or pregabalin and N-type calcium channel antagonist” (Ajinomoto Co., Inc., priority 2002, dated 2010)
Where two headings read alike, the source gives them in different places.

Experiments:
N-type calcium channel = molecular target: T1, N-type calcium channel (Homo sapiens, UniProt Q00975); test: Antagonistic activity on N-type calcium channel (fluorescence dye method, IMR-32 cells); format: cell-based; settings: 10 μM test compound, 60 mM KCl stimulation, 1 μM Nifedipine, read-out: Antagonistic activity on N-type calcium channels at 10 μM Inhibition rate (%)
T1 construct: host or cells: IMR-32 human neuroblastoma cells, differentiated with dibutyl cAMP and 5-bromodeoxyuridine for 10 to 14 days
T1 sequence (Q00975 whole entry): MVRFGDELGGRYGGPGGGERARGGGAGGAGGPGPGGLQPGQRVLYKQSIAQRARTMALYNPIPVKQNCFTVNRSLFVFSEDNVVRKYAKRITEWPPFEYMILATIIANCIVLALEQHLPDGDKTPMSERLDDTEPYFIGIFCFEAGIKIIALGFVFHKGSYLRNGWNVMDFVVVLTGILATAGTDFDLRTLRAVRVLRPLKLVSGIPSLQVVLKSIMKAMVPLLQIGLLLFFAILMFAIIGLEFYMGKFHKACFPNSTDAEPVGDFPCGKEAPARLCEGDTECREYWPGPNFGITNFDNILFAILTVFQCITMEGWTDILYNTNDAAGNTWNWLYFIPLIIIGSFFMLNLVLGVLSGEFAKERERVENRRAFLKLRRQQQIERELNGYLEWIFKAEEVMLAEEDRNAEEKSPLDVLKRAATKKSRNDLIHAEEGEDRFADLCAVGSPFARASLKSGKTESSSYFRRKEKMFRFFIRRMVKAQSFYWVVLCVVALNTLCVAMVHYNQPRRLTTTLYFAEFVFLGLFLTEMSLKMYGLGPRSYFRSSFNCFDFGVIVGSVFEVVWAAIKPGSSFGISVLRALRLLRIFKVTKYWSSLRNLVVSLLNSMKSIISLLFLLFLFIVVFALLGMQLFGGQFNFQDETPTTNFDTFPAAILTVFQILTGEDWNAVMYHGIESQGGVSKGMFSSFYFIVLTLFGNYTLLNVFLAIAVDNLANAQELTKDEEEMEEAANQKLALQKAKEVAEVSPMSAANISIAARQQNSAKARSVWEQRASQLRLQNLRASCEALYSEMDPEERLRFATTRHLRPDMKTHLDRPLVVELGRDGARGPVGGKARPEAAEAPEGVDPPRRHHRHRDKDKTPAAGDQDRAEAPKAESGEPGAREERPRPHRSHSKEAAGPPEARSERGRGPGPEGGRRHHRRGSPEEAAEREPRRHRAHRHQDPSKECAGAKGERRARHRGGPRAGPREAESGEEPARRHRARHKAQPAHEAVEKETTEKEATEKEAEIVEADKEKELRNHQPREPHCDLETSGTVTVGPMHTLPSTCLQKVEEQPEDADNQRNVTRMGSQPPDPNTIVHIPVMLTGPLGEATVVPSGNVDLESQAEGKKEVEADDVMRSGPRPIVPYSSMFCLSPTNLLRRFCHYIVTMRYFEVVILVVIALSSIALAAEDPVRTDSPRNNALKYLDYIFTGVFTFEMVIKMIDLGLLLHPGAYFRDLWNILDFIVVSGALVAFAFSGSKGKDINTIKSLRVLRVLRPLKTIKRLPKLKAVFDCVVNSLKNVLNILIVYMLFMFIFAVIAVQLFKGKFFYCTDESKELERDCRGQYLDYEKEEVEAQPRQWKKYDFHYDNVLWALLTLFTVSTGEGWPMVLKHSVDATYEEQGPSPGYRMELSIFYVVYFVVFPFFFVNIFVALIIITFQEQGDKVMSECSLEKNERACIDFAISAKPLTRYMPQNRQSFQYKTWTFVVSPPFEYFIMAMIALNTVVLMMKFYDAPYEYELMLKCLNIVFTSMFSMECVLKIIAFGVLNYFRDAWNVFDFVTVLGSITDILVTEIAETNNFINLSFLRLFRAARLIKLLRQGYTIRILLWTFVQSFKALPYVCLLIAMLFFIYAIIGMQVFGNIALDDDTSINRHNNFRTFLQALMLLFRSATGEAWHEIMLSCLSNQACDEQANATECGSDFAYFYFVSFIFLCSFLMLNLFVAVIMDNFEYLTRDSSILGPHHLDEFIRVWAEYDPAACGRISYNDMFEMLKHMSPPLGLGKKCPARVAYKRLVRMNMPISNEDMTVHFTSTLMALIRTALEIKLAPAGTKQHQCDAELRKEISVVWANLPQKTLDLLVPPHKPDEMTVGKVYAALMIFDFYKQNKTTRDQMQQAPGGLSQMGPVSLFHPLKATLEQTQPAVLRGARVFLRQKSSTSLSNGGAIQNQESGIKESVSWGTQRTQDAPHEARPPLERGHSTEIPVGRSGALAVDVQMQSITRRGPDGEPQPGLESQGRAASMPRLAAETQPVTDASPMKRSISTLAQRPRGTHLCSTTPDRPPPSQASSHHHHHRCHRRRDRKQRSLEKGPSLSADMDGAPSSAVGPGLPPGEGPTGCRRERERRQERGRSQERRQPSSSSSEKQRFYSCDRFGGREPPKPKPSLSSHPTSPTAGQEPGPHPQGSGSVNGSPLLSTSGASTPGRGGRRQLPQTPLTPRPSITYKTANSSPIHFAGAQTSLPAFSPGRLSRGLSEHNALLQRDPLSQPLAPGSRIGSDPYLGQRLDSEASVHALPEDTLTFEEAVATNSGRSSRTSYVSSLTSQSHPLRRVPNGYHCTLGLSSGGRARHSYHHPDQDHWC
T1 sequence (Q02641 whole entry partner): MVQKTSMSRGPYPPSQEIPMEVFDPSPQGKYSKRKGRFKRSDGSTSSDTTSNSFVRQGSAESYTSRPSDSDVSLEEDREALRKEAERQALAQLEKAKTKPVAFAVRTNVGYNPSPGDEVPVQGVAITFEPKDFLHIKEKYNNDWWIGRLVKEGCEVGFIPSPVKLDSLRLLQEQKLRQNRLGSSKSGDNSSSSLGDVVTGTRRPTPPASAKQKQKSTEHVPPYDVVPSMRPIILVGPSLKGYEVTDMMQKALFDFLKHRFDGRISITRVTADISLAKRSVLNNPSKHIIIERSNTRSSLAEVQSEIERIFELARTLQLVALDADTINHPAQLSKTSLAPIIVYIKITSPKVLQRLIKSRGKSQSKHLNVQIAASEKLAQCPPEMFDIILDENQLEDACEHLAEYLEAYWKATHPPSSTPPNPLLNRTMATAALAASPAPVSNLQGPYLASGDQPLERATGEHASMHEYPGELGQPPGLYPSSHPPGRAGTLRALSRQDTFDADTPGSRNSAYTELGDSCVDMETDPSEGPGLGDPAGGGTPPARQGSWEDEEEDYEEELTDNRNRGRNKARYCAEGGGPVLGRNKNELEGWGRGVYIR
T1 sequence (P54289 25-956 partner limits assumed): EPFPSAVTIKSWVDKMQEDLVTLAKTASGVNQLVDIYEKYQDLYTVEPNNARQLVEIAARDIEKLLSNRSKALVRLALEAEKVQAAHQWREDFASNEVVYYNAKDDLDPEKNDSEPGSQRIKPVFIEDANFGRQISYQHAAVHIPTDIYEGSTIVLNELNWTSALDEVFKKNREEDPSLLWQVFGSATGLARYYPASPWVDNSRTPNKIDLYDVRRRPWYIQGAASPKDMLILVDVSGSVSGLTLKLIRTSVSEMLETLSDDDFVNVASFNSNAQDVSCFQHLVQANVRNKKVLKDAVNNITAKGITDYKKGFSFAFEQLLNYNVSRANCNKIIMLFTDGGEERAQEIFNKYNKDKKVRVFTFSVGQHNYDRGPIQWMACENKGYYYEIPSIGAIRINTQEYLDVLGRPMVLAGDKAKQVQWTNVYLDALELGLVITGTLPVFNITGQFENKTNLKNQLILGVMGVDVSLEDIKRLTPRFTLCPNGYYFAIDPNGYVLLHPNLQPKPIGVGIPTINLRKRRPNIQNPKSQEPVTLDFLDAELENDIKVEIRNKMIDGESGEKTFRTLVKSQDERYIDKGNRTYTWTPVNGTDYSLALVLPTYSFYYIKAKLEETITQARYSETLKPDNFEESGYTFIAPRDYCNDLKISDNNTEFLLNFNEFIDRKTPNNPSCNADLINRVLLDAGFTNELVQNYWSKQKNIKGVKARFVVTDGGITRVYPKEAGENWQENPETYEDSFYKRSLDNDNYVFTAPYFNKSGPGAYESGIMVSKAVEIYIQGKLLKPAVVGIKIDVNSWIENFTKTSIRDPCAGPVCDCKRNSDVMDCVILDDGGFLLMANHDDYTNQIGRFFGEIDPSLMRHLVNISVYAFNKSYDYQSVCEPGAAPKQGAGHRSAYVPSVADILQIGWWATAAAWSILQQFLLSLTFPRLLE
T1 sequence (P54289 957-1103 partner limits assumed): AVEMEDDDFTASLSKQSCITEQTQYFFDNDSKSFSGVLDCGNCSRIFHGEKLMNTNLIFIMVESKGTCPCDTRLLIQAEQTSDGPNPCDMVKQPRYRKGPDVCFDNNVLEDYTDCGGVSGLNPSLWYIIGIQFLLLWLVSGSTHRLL
Procedure: Antagonistic Activity on N-Type Calcium Channel (Fluorescence Dye Method)
Human neuroblastoma cells IMR-32 were obtained from ATCC (American Type Culture Collection). The medium used was a Phenol Red-free Eagle minimum essential medium containing earle's salts supplement (GIBCO) supplemented with 2 mM of L-glutamine (GIBCO), 1 mM of sodium pyruvate (pH 6.5) (GIBCO), antibiotic/antimycotic mixture (GIBCO) and 10% fetal calf serum (Cell Culture Technologies). 3 ml of 1×10^5 cells/ml IMR-32 cells were spread on the glass bottom of a dish (Iwaki Glsss Co., Ltd.) having a diameter of 35 mm which had been treated with poly-L-lysin (SIGMA) and collagen (COLLAGEN VITROGEN 100; Collagen Co.). After the culture for 1 day, 1 mM (final concentration) of dibutyl cAMP and 2.5 μM (final concentration) of 5-bromodeoxyuridine (SIGMA) were added. After the culture for additional 10 to 14 days, the cells were subjected to the activity determination.
The medium for IMR-32 cells thus prepared was replaced with 1 ml of Phenol Red-free and earle's salts supplemented Eagle minimum essential medium (GIBCO) containing 2.5 μM fura-2/AM (Dojin Kagaku, Co.), and the incubation was conducted at 37° C. for 30 minutes. […] Antagonistic activity on N-type calcium channel was determined and analyzed using a fluorescence microscope (Nikon Corporation) and an image analysis device ARGUS 50 (Hamamatsu Photonics). […]

Sprague-Dawley rats = test: Formalin test in rat pain models (flinching action, second phase); format: in vivo
Procedure: Analgesic activities were determined in the formalin test. Four test groups [a control group (given a saline solution) and groups given 30, 100 and 300 mg/kg of gabapentin] each composed of 6 to 7 male Sprague-Dawley rats (SD rats, 9 weeks old) were used for the experiment. Gabapentin was dissolved in a saline solution.
4 ml/kg of a saline solution or gabapentin was orally administered to the rats. Three hours after, the rats were tranquilized with halothane, and 2.5% formalin solution (100 μl) was injected subcutaneously to dorsal surface of the left hindpaw. Immediately thereafter, the rats were awaken from the anesthesia. […] The number of times of retracting action, i.e., flinching action of the hindpaw in which formalin had been injected, was counted for 1 minute at an interval of one minute until 5 minutes after the formalin injection, and for 1 minute at an interval of 5 minutes from 10 to 60 minutes after the injection. […] The total number of times of the flinching action observed 10 to 60 minutes after the formalin injection (the second phase) was taken as the index of the pain action.
Analgesic activities were determined in the formalin test. Four test groups [a control group, a group given the compound A (the compound of Referential Example 11: 3 mg/kg), a group given 100 mg/kg of gabapentin and a group given a combination of 3 mg/kg of the compound A and 100 mg/kg of gabapentin] each composed of 6 to 7 male Sprague-Dawley rats (SD rats, 9 weeks old) were used for the experiment. The administration volume to each group was as follows. In the control group, 5 ml/kg of 0.5% tragacanth solution and 4 ml/kg of a saline solution were given orally to the rats. In the group given the compound A, 5 ml/kg of the compound A suspended in 0.5% tragacanth solution and 4 ml/kg of a saline solution were given orally to them. In the group given gabapentin, 5 ml/kg of 0.5% tragacanth solution and 4 ml/kg of gabapentin dissolved in a saline solution were given orally to them. In the group given a combination of the compound A and gabapentin, 5 ml/kg of the compound A suspended in 0.5% tragacanth solution and 4 ml/kg of gabapentin dissolved in a saline solution were given orally to them.
Analgesic activities were determined in the formalin test. Four test groups [a control group, a group given the compound B (the compound of Referential Example 71: 3 mg/kg), a group given 100 mg/kg of gabapentin and a group given a combination of 3 mg/kg of the compound B and 100 mg/kg of gabapentin] each composed of 6 male Sprague-Dawley rats (SD rats, 9 weeks old) were used for the experiment. The administration volume to each group was as follows. In the control group, 3 ml/kg of polyethylene glycol 400 (PEG) and 4 ml/kg of a saline solution were given orally to the rats. In the group given the compound B, 3 ml/kg of the compound B dissolved in PEG and 4 ml/kg of a saline solution were given orally to them. In the group given gabapentin, 3 ml/kg of PEG and 4 ml/kg of gabapentin dissolved in a saline solution were given orally to them. In the group given the combination of compound B and gabapentin, 3 ml/kg of the compound B dissolved in PEG and 4 ml/kg of gabapentin dissolved in a saline solution were given orally to them.
Analgesic activities were determined in the formalin test. Four test groups [a control group (given a saline solution) and groups given 10, 30 and 100 mg/kg of pregabalin] each composed of 6 male Sprague-Dawley rats (SD rats, 9 weeks old) were used for the experiment. Pregabalin was dissolved in a saline solution. 4 ml/kg of a saline solution or pregabalin was orally administered to the rats.
Analgesic activities were determined in the formalin test.

[1] = cited from earlier work
[2] = clinical use; cited from earlier work
[3] = patients with post-herpetic neuralgia (Acta Neurol. Scand. 101:359-371, 2000); cited from earlier work

CC(C)(C)CC(=O)NCCCNC(=O)C=C1c2ccccc2C=Cc2ccccc21 [Example 41]
inhibition at 10 µM (N-type calcium channel): 76%

CC(C)C[C@H](CN)CC(=O)O [pregabalin, (S)-3-(aminomethyl)-5-methylhexanoic acid]
inhibiting ratio of flinches (Sprague-Dawley rats; Example 4, 10 mg/kg oral, vs control group): 31% | inhibiting ratio of flinches (Sprague-Dawley rats; Example 4, 30 mg/kg oral, vs control group): 61% | inhibiting ratio of flinches (Sprague-Dawley rats; Example 4, 100 mg/kg oral, vs control group): 61% | inhibiting ratio of flinches (Sprague-Dawley rats; Example 5, 30 mg/kg oral): 48% | motor function of the body ([1]; whole body administration of 100 mg/kg or more): significant decrease in motor function of the body | side-effects [2]: somnolence and dizziness

CC(C)(C)C(=O)N[C@H](CO)CCC(=O)N1CCC(=C2c3ccccc3C=Cc3ccccc32)CC1 [Referential Example 71, (S)-N-[4-[4-(5H-dibenzo[a,d] [7]annulen-5-ylidene)-1-piperidinyl]-1-(hydroxylmethyl)-4-oxobutyl]-2.2-dimethylpropanamide]
inhibiting ratio of flinches (Sprague-Dawley rats; Example 3, 3 mg/kg oral, dissolved in PEG): 16% | inhibiting ratio of flinches (Sprague-Dawley rats; Example 5, 3 mg/kg oral, dissolved in PEG): 7%

NCC1(CC(=O)O)CCCCC1 [gabapentin, 1-(aminomethyl)-cyclohexaneacetic acid]
inhibiting ratio of flinches (Sprague-Dawley rats; Example 1, 30 mg/kg oral, vs control group): 11% | inhibiting ratio of flinches (Sprague-Dawley rats; Example 1, 100 mg/kg oral, vs control group): 42% | inhibiting ratio of flinches (Sprague-Dawley rats; Example 1, 300 mg/kg oral, vs control group): 47% | inhibiting ratio of flinches (Sprague-Dawley rats; Example 2, 100 mg/kg oral): 47% | inhibiting ratio of flinches (Sprague-Dawley rats; Example 3, 100 mg/kg oral): 59% | treatment effectiveness [3]: approximately 60% | motor function of the body ([1]; whole body administration of 300 mg/kg or more): significant decrease in motor function of the body | side-effects [2]: somnolence and dizziness

CC(C)(C)C(=O)NCCC(=O)N1CCC(=C2c3ccccc3C=Cc3ccccc32)CC1 [Referential Example 11, N-{3-[4-(5H-dibenzo[a, d] [7]annulen-5-ylidene)-1-piperidinyl]-3-oxopropyl}-2,2-dimethylpropanamide]
inhibiting ratio of flinches (Sprague-Dawley rats; Example 2, 3 mg/kg oral, suspended in 0.5% tragacanth): 38%
